Like-named read-outs stand apart in the source and are kept apart here.

In experiment [1] the test system is porcine esterase. Nature of the experiment: Two-step luminescent carboxylesterase assay with D-luciferin esters. In kind it is biochemical. The settings on record: two step luminescent assay format.
Experiment [2] addresses GST A1-1 (Homo sapiens, UniProt P08263). To be noted: for Raw Data light reading: GST A1-1, 2 mM glutathione. The method, then: Enzyme and glutathione stock solutions are described in Example IA.
(§1) After assembly, the enzyme stock solutions were diluted 1:10 into 10 mM HEPES, pH 7.5 and the following additions were made to the reactions.
GST A1-1 (Sigma) is an enzyme found in a few body tissues, including kidney, intestine, lung and liver. GST M1-1 (Sigma) is a type b allelic variant, which corresponds to GST psi purified from human liver.
(§2) The reactions were allowed to proceed for 30 minutes at room temperature and then 100 μl of P450 Glo reagent was added to each reaction and the light produced by the subsequent solution was measured on a Veritas luminometer.

Experiment [3] relates to equine GST. Nature of the experiment: Two-step luminescent GST assay with equine GST. In kind it is biochemical. The settings on record: for Raw Data light reading: Equine GST, 2 mM glutathione. The method, then:
(§3) The derivative was tested in a two step format. For the first step, the derivative was added to a mixture with one of three GSTs with or without glutathione. At different times after the reaction was initiated, a portion was removed and mixed with a luciferase reaction mixture.
(§4) S. japonica GST: 1 vial with 3 mg GST (Part G5663, Sigma Chemical Company) was dissolved in 500 μl of 10 mM BisTris, pH 6.6.
(§5) The reactions (Table 1) were assembled by first adding the water and 1 M BisTris solutions in individual 0.5 ml microfuge tubes, then adding the other components except for the GST #3 solution. Finally, the GST #3 (FIG. 12) solution was added to the reactions, the resulting solution was mixed, and the time of addition noted.
as §1, §2

Experiment [4] can be described thus: Non-enzymatic conversion of luciferin derivative by glutathione (no GST) and buffer controls. In kind it is biochemical. To be noted: for Glutathione Signal: glutathione alone minus buffer; for Light Output: Table 4 reaction 1: BisTris pH 6.5, no glutathione, time post mixing in column head; for Light Reading: no enzyme, 45 min. The method, then: Buffer stock solutions (1 M) of BisTris at pH 6.5, HEPES, pH 7.0, 7.5 and 8.0 and Tricine pH 8.5 were prepared by dissolving solid reagent obtained from Sigma Chemical Corporation and adjusting the pH to the desired value. […]

Experiment [5] has as its target T1, GST M1-1 (Homo sapiens, UniProt P09488, K173N).
T1 construct: purchased Sigma
T1 sequence (P09488 1-218 K173N): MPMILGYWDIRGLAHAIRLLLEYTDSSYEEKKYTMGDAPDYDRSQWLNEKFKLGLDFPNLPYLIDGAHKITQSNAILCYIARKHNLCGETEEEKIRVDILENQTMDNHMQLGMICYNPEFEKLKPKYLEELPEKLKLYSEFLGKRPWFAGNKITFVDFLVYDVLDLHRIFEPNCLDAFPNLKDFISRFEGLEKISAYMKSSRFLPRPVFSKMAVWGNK
Put plainly: Luminescent GST assay with GST M1-1. In kind it is biochemical. To be noted: for Raw Data light reading: GST M1-1, 2 mM glutathione.

The target of experiment [6] is T2, S. japonica GST (Schistosoma japonicum, UniProt P08515).
T2 construct: purchased Sigma Chemical Company G5663
T2 sequence (P08515 whole entry): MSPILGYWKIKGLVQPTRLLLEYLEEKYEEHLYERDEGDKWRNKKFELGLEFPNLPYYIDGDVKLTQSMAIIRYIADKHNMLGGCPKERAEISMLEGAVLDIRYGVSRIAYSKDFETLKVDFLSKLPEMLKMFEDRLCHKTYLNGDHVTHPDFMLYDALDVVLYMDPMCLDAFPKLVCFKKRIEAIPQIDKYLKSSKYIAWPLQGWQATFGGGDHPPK
In kind it is biochemical. The settings on record: for Raw Data light reading: S. japonica GST, 2 mM glutathione; for Light Reading: 45 min. The protocol: as §3, §4, §5
Buffer stock solutions (1 M) of BisTris at pH 6.5, HEPES, pH 7.0, 7.5 and 8.0 and Tricine pH 8.5 were prepared by dissolving solid reagent obtained from Sigma Chemical Corporation and adjusting the pH to the desired value.
The GST #3 addition was performed last and the solutions were mixed immediately after addition of GST #3. […] After mixing, the light produced by the solution was measured using a Turner TD 20/20 luminometer.
The stock of S. japonica GST used in Example IA was diluted to 1 mg/ml with 10 mM BisTris pH 6.5.
The reactions were initiated by addition of GST #3 and mixing. […]

The target of experiment [7] is T3, CYP2D6 (Homo sapiens, UniProt P10635).
T3 construct: purchased Discovery Labware (BD/Gentest); host or cells: insect cell expression system (membrane fractions)
T3 sequence (P10635 whole entry): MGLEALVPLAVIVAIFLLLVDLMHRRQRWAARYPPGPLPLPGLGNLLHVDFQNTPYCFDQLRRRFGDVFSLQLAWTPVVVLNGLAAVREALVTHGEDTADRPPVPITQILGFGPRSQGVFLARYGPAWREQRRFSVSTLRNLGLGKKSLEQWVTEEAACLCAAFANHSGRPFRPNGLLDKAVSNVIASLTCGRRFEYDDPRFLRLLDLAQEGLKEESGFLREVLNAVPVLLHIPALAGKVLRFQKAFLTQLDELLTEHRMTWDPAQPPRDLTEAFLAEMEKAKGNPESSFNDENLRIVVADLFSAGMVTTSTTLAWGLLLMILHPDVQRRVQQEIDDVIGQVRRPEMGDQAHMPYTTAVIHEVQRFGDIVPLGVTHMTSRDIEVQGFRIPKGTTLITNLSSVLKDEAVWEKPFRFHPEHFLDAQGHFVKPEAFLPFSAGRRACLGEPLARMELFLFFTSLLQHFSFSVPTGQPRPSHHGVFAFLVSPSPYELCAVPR
Put plainly: CYP2D6 inhibition assay with luciferin-6-methylether ethylene glycol ester. In kind it is biochemical. The settings on record: substrate luciferin-6-methylether ethylene glycol ester.

Experiment [8] addresses T4, QuantiLum Luciferase (firefly luciferase) (Photinus pyralis, UniProt P08659).
T4 construct: purchased Promega Corporation El 70
Put plainly: pH dependence of firefly luciferase signal with luciferin or 5′-fluoroluciferin. In kind it is biochemical. The protocol: Aliquots of these solutions were then placed into tubes and buffers were added to 80 mM.
Luminescent reactions were initiated by combining 100 μl of the luciferase-containing solution and 100 μl of the luciferase detection reagents. Luminescence was integrated over 1 second per sample using the Veritas plate luminometer (Turner Bio Systems). N=3 for each result.

For experiment [9], the target named is T4, QuantiLum Luciferase (firefly luciferase). Put plainly: ATP titration of luciferase reactions with luciferin and fluoroluciferins. In kind it is biochemical. The method, then: AU compounds except 5’-fluoroluciferin and DTT were purchased from Sigma Chemical. To some of this reagent 5 mM ATP (Amersham/Invitrogen) was added, then serially diluted by half-logs to 0.05 mM. Reactions were initiated by adding equal volumes (0.1 ml) of reagent and DMEM medium (Gibco/Invitrogen) containing 0.1% Prionex® (Pentapharm) and 1.4×10-5 mg/ml QuantiLum™ Luciferase (Promega Corporation).
For ATP titrations for 7′-fluoroluciferin, reagent was created containing 200 mM HEPES, 200 mM PIPES, 1 mM CDTA, 0.5% Tergitol NP-9, 0.03% Benzyl dodecyldimethyl ammonium bromide, 30 mM thiourea, 10 mM magnesium sulfate, and 0.15 mM 7′-fluoroluciferin. This solution was separated into 3 parts and pH of the reagents were 7.4, 7.2 and 6.7. To some of this reagent, 10 mM ATP (Amersham/Invitrogen) was added. The ATP was serially diluted by quarter-logs from 10 mM to 0.32 mM.
Reactions were initiated by adding equal volumes (0.03 ml) of reagent and DMEM medium (Gibco/Invitrogen) containing 0.1% Prionex® (Pentapharm) and 1.4×10-5 mg/ml QuantiLum™ Luciferase (Promega Corporation).
Luminescence was measured for 0.5 seconds per well using Berthold Orion luminometer.

For experiment [10] the target is unchanged. Put plainly: Luminescence spectra of fluoroluciferins. In kind it is biochemical. To be noted: pH 7.4. The method, then:
All compounds except fluoroluciferin and ATP were purchased from Sigma Chemical. ATP was purchased from Amersham/Invitrogen.
Spectra were measured using 0.5s integration with 1 nm increments on a Spex Fluorolog.

T4 sequence (P08659 whole entry): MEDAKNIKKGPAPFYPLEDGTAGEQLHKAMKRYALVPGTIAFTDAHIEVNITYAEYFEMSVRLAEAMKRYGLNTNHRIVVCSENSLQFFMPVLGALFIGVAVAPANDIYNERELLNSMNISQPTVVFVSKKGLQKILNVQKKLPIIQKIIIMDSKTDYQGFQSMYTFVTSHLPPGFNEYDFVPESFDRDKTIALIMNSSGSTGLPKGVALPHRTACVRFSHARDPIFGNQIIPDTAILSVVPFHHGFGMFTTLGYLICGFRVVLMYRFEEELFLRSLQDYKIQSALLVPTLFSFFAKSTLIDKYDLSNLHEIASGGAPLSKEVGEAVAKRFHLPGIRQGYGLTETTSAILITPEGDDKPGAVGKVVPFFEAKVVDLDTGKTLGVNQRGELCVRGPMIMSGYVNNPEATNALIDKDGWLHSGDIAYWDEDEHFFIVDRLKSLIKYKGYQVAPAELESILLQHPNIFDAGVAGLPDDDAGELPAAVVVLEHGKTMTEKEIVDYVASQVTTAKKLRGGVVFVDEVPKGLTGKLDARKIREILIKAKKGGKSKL
Chain of GST A1-1 (P08263 whole entry): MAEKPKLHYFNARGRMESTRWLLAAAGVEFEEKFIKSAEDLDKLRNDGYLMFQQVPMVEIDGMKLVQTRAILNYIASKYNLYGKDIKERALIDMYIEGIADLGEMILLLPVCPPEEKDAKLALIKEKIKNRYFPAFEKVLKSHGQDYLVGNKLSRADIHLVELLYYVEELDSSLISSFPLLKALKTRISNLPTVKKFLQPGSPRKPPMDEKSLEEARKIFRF

As to `CCOC(=O)[C@H]1CSC(c2nc3ccc(O)cc3s2)=N1` [D-luciferin ethyl ester], in [1], the “carboxylesterase substrate” value is on record as “effective in this format”.

Acetyl Luciferin: the “Raw Data light reading” value in experiment [2] (2 mM AL) is listed as 42,725; in experiment [2] (20 mM AL), 365,770; in [3] (2 mM AL), 39,036; in [3] (20 mM AL) it was 361,356; in experiment [4] (Buffer Alone, 2 mM AL, pH 7.5, 30 min), 20,649; in [4] (Buffer Alone, 20 mM AL, pH 7.5, 30 min) it was 183,852. For the same compound, the “Raw Data light reading” value is reported as 35,206 in experiment [4] (Glutathione Alone (2 mM), 2 mM AL); 330,916 in experiment [4] (Glutathione Alone (2 mM), 20 mM AL); 42,867 in [5] (2 mM AL); 419,400 in experiment [5] (20 mM AL); 126,288 in experiment [6] (2 mM AL); 1,233,119 in [6] (20 mM AL). The “Net Enzyme Signal” value in [2] (Net 2 mM AL) was 7,519; in experiment [2] (Net 20 mM AL), 34,854; in experiment [3] (Net 2 mM AL) it was 3,830; in experiment [3] (Net 20 mM AL), 30,440; in experiment [5] (Net 2 mM AL), 7,661; in [5] (Net 20 mM AL), 88,484. The “Net Enzyme Signal” value was 91,082 in experiment [6] (Net 2 mM AL) and 902,203 in [6] (Net 20 mM AL). In addition, the results for the “Glutathione Signal” value in experiment [4] (2 mM AL) and in experiment [4] (20 mM AL) were 14,557 and 147,064, respectively.

As for `O=C(O)[C@H]1CSC(c2ccc3cc(Oc4ccc(C(F)(F)F)cc4[N+](=O)[O-])ccc3n2)=N1` [GST #3, 6-(2-nitro-4-trifluoromethyl-phenoxy)quinolinyl-luciferin], the “GST preference” value in [3] (light generating reaction) was “better substrate for equine GST in a light generating reaction than GST M1-1 and GST A1-1”. Besides, the “Light Output” value is 0.976 in experiment [4] (20 minutes after mixing), 1.099 in experiment [4] (40 minutes after mixing) and 1.01 in [4] (at time of mixing). Besides, the “Light Reading” value was 26.3 in experiment [4] (Table 6 reaction 1: pH 7.5, 50 μl 10 mM GSH); 19.21 in experiment [4] (reaction 3: pH 7.5, 30 μl 10 mM GSH); 10.73 in experiment [4] (reaction 5: pH 7.5, 10 μl 10 mM GSH); 65.98 in [4] (reaction 7: pH 8.0, 50 μl 10 mM GSH); 48.41 in [4] (reaction 9: pH 8.0, 30 μl 10 mM GSH); 22.52 in experiment [4] (reaction 11: pH 8.0, 10 μl 10 mM GSH). Moreover, the “Light Reading” value in [4] (reaction 13: pH 8.5, 50 μl 10 mM GSH) worked out at 295.2; in experiment [4] (reaction 15: pH 8.5, 30 μl 10 mM GSH) it was 199.4; in [4] (reaction 17: pH 8.5, 10 μl 10 mM GSH), 97.89; in experiment [6] (reaction 2: pH 7.5, 50 μl 10 mM GSH, 10 μl S. japonica GST), 61.58; in experiment [6] (reaction 4: pH 7.5, 30 μl 10 mM GSH, enzyme), 55.18; in experiment [6] (reaction 6: pH 7.5, 10 μl 10 mM GSH, enzyme) it was 52.23. The “Light Reading” value in experiment [6] (reaction 8: pH 8.0, 50 μl 10 mM GSH, enzyme) came to 152.3; in experiment [6] (reaction 10: pH 8.0, 30 μl 10 mM GSH, enzyme), 135.6; in experiment [6] (reaction 12: pH 8.0, 10 μl 10 mM GSH, enzyme) it was 97.47; in experiment [6] (reaction 14: pH 8.5, 50 μl 10 mM GSH, enzyme) it was 532.4; in experiment [6] (reaction 16: pH 8.5, 30 μl 10 mM GSH, enzyme) it was 416.7; in experiment [6] (reaction 18: pH 8.5, 10 μl 10 mM GSH, enzyme) it was 267.3.

For `CC(NC(C)(C)C)C(=O)c1cccc(Cl)c1` (centres unmarked) [bupropion], in experiment [7], the concentration for half-maximal inhibition (IC50) (in general, the concentration at which inhibition is half-maximal) was 33 µM.

Consider `O=C(OCc1cccnc1)[C@H]1CSC(c2nc3ccc(O)cc3s2)=N1` [D-luciferin picolinyl ester], for which the “carboxylesterase substrate” value in experiment [1] was “effective in this format”.

In the case of `O=C(O)[C@H]1CSC(c2nc3cc(F)c(O)cc3s2)=N1` [5′-fluoroluciferin], the “Relative Luminescence (% of 8.3 Luciferin)” value is 19% in [8] (pH 6.900, MOPS); 22% in [8] (pH 7.133, MOPS); 23% in experiment [8] (pH 7.296, MOPS); 22% in experiment [8] (pH 7.303, HEPES); 23% in experiment [8] (pH 7.499, MOPS); 25% in experiment [8] (pH 7.521, HEPES). For the same compound, the “Relative Luminescence (% of 8.3 Luciferin)” value in experiment [8] (pH 7.673, Tricine) amounted to 24%; in experiment [8] (pH 7.720, HEPES) it was 27%; in experiment [8] (pH 7.883, Tricine) it was 24%; in experiment [8] (pH 7.892, HEPES) it was 26%; in experiment [8] (pH 8.100, Tricine) it was 24%; in [8] (pH 8.327, Tricine), 22%. The “ATP requirement of luciferase reaction” value in [9] is “saturated with ATP at a higher concentration than the reaction using luciferin”. In addition, the “blue shift of luminescence λmax from regular luciferin” value was “approximately 25 nm” in [10] and “about 10 nm” in [10] (listed as 5′ fluoroluciferin).

With `COC(=O)[C@H]1CSC(c2nc3ccc(O)cc3s2)=N1` [D-luciferin methyl ester], the “carboxylesterase substrate” value in experiment [1] is reported as “effective in this format”.

Regarding `Clc1ccccc1C(c1ccccc1)(c1ccccc1)n1ccnc1` [clotrimazole], in experiment [7], the IC50 stood at 22.6 µM.

`CC(C)N(CCC(C(N)=O)(c1ccccc1)c1ccccn1)C(C)C` (centres unmarked) [disopyramide] displayed an IC50 in experiment [7] of 220 µM.

The values are drawn from patent US10745365B2, “Luminogenic and fluorogenic compounds and methods to detect molecules or conditions” (Promega Corporation, priority 2005, dated 2020).
